These results are taken from PubChem BioAssay (NCI).

Test systems include SR leukemia; SF-539 CNS; HS 578T breast; UACC-257 melanoma; EKVX NSCLC; SK-MEL-5 melanoma; OVCAR-4 ovarian; SW-620 colon.
Assay in all cases: DTP human tumour cell line panel, 48 h

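Cells were grown in 96-well plates and exposed to each compound for 48 hours at five concentrations; endpoints were interpolated linearly between bracketing concentrations, or set to the highest concentration if not reached. Abbreviation: GI50, concentration required for 50% inhibition of growth. TGI denotes the concentration required for complete inhibition of growth.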

As a reminder, the GI50 is the concentration that inhibits growth by half. By TGI is commonly meant the concentration giving total growth inhibition. A low value points to more potent growth arrest. In the case of `Cc1ccc(C(=O)N=Nc2c(O)[nH]c3ccc(Cl)cc23)cc1`, the GI50 was greater than 50 µM with SR leukemia; greater than 50 µM in the assay on SF-539 CNS; greater than 50 µM with HS 578T breast; greater than 50 µM with UACC-257 melanoma; greater than 50 µM in the assay with EKVX NSCLC; 23.7 µM with SK-MEL-5 melanoma. For the same compound, the GI50 in the assay with OVCAR-4 ovarian was 6.82 µM; in the assay on SW-620 colon, 11.4 µM. Also, the TGI with SR leukemia, in the assay with SF-539 CNS, in the assay on HS 578T breast, in the assay with UACC-257 melanoma, in the assay on EKVX NSCLC and in the assay on SK-MEL-5 melanoma was greater than 50 µM each time. Besides, the values for the TGI with OVCAR-4 ovarian and with SW-620 colon were 18 µM and 41.4 µM, respectively.

Take `CN1CCN(c2ccc(C(=O)Nc3cccc(C#Cc4cccc5[nH]nc(N)c45)c3)cc2C(F)(F)F)CC1`: the GI50 with SR leukemia is 1.06 µM; in the assay with SF-539 CNS it was 0.544 µM; in the assay on HS 578T breast, 0.847 µM; with UACC-257 melanoma it was 1.93 µM; with EKVX NSCLC it was 1.6 µM; in the assay on SK-MEL-5 melanoma, 2.16 µM. Also, the results for the GI50 in the assay with OVCAR-4 ovarian and with SW-620 colon were 0.962 µM and 0.608 µM, respectively. Also, the TGI in the assay with SR leukemia was 5.34 µM; in the assay with SF-539 CNS, 1.16 µM; in the assay with HS 578T breast, 3.4 µM; in the assay with UACC-257 melanoma it was 4.53 µM; with EKVX NSCLC, 5.63 µM; in the assay on SK-MEL-5 melanoma it was 6.34 µM. In addition, the TGI amounted to 4.51 µM in the assay on OVCAR-4 ovarian and 1.26 µM in the assay on SW-620 colon.

In the case of `CN(C)c1ccc(C(=C2C=CC(=[N+](C)C)C=C2)c2ccccc2Cl)cc1`, the GI50 is 0.235 µM in the assay with SR leukemia; 0.259 µM in the assay on SF-539 CNS; 0.207 µM in the assay with HS 578T breast; 0.528 µM in the assay on UACC-257 melanoma; 0.162 µM with EKVX NSCLC; 0.301 µM in the assay with SK-MEL-5 melanoma. Further, the GI50 in the assay on OVCAR-4 ovarian was 0.36 µM; in the assay on SW-620 colon it was 0.288 µM. For the same compound, the TGI in the assay on SR leukemia was determined as 0.898 µM; in the assay on SF-539 CNS it was 0.951 µM; with HS 578T breast, 2.78 µM; with UACC-257 melanoma it was 1.73 µM; in the assay on EKVX NSCLC it was 1.45 µM; in the assay on SK-MEL-5 melanoma it was 1.05 µM. For the same compound, the TGI in the assay on OVCAR-4 ovarian was determined as 1.6 µM; with SW-620 colon, 1.19 µM.

`Cc1ccc(C)c2c(N=Nc3ccccc3[N+](=O)[O-])c(O)[nH]c12`: the TGI in the assay on SR leukemia, in the assay with SF-539 CNS, in the assay with HS 578T breast, in the assay with UACC-257 melanoma, in the assay with EKVX NSCLC and with SK-MEL-5 melanoma was greater than 100 µM each time. Also, the TGI with OVCAR-4 ovarian and in the assay on SW-620 colon was greater than 100 µM throughout.

Regarding `CC1(C)N=C(N)N=C(N)N1c1ccc(Cl)c(Cl)c1`, the GI50 in the assay with SR leukemia is 31.3 µM; in the assay on SF-539 CNS, 0.201 µM; in the assay with HS 578T breast, greater than 27.3 µM; with UACC-257 melanoma, greater than 41.6 µM; in the assay on EKVX NSCLC, 1.97 µM; in the assay on SK-MEL-5 melanoma, 0.547 µM. Also, the GI50 is 10.9 µM in the assay with OVCAR-4 ovarian and 0.0966 µM with SW-620 colon. Besides, the TGI in the assay on SR leukemia was greater than 100 µM; in the assay on SF-539 CNS it was greater than 54 µM; with HS 578T breast, greater than 100 µM; in the assay with UACC-257 melanoma, greater than 100 µM; in the assay with EKVX NSCLC it was greater than 100 µM; in the assay with SK-MEL-5 melanoma, greater than 100 µM. For the same compound, the TGI in the assay on OVCAR-4 ovarian and in the assay on SW-620 colon was greater than 100 µM throughout.

As to `CC(OC(=O)N(N(CCCl)S(C)(=O)=O)S(C)(=O)=O)c1ccc([N+](=O)[O-])cc1` (stereo unspecified), the GI50 was 26.7 µM with SR leukemia; 3.42 µM with SF-539 CNS; greater than 54.7 µM with HS 578T breast; 76.1 µM with UACC-257 melanoma; 23.4 µM with EKVX NSCLC; 16.1 µM in the assay with SK-MEL-5 melanoma. The GI50 in the assay on OVCAR-4 ovarian was 73.5 µM; in the assay on SW-620 colon it was greater than 67.9 µM. The TGI in the assay with SR leukemia is greater than 100 µM; in the assay with SF-539 CNS it was greater than 47.5 µM; in the assay with HS 578T breast, greater than 92 µM; with UACC-257 melanoma it was greater than 100 µM; in the assay with EKVX NSCLC, greater than 76.9 µM; with SK-MEL-5 melanoma, 44.7 µM. For the same compound, the TGI in the assay with OVCAR-4 ovarian and in the assay with SW-620 colon was greater than 100 µM each time.

As for `COc1ccc2nccc(/C=C/c3ccnc4ccc(OC)cc34)c2c1`, the GI50 is 21.8 µM in the assay on SR leukemia; greater than 93.1 µM in the assay on SF-539 CNS; 23.6 µM with HS 578T breast; greater than 100 µM in the assay on UACC-257 melanoma; greater than 61.2 µM in the assay on EKVX NSCLC; greater than 71.4 µM in the assay with SK-MEL-5 melanoma. In addition, the results for the GI50 in the assay with OVCAR-4 ovarian and with SW-620 colon were 21.7 µM and 39.8 µM, respectively. The TGI was greater than 53.7 µM in the assay on SR leukemia; greater than 100 µM with SF-539 CNS; 90.1 µM in the assay with HS 578T breast; greater than 100 µM with UACC-257 melanoma; greater than 100 µM in the assay with EKVX NSCLC; greater than 100 µM in the assay with SK-MEL-5 melanoma. For the same compound, the results for the TGI in the assay on OVCAR-4 ovarian and in the assay on SW-620 colon were greater than 52.5 µM and greater than 100 µM, respectively.

For `Oc1c(CNCCNCc2cc(Cl)cc(Cc3ccccc3)c2O)cc(Cl)cc1Cc1ccccc1`, the GI50 was 0.376 µM in the assay with SR leukemia; 0.314 µM in the assay on SF-539 CNS; 3.91 µM in the assay with HS 578T breast; 2.12 µM in the assay with UACC-257 melanoma; 0.193 µM with EKVX NSCLC; 0.302 µM with SK-MEL-5 melanoma. In addition, the GI50 in the assay with OVCAR-4 ovarian was 0.0806 µM; in the assay with SW-620 colon, 0.472 µM. Also, the TGI in the assay with SR leukemia was greater than 100 µM; in the assay with SF-539 CNS it was 3.93 µM; with HS 578T breast, 59.3 µM; with UACC-257 melanoma it was 16.6 µM; in the assay with EKVX NSCLC, greater than 100 µM; in the assay on SK-MEL-5 melanoma, 1.91 µM. Further, the TGI with OVCAR-4 ovarian is greater than 100 µM; in the assay on SW-620 colon, 30.7 µM.

Consider `Cc1cc2c(cc1C)[n+](Cc1ccc3ccccc3n1)cn2Cc1ccc2ccccc2n1`, for which the GI50 is 1.12 µM in the assay on SR leukemia; 0.899 µM with SF-539 CNS; 1.94 µM in the assay with HS 578T breast; 1.23 µM in the assay with UACC-257 melanoma; 2.29 µM in the assay with EKVX NSCLC; 0.471 µM in the assay on SK-MEL-5 melanoma. In addition, the figures for the GI50 with OVCAR-4 ovarian and with SW-620 colon were 1.24 µM and 1.07 µM, respectively. In addition, the TGI in the assay on SR leukemia came out at 3.21 µM; with SF-539 CNS it was 2.53 µM; with HS 578T breast, 5.48 µM; with UACC-257 melanoma, 3.18 µM; in the assay on EKVX NSCLC it was 11.1 µM; in the assay with SK-MEL-5 melanoma, 1.59 µM. The TGI was 4.09 µM with OVCAR-4 ovarian and 2.92 µM in the assay on SW-620 colon.
